We go through twelve compounds from US6933304B2, “Heteroarylalkanoic acids as integrin receptor antagonists” (Pharmacia Corporation, priority 2000, dated 2005).

In assay [1] the target is T1, αVβ6 (HT-29 human colon carcinoma cells) (Homo sapiens, UniProt P06756+P18564).
T1 construct: endogenous in cells; host or cells: HT-29 human colon carcinoma cells
The assay can be described thus: HT-29 cell adhesion assay (adhesion to immobilized LAP). It is filed as cell-based. The conditions noted are these: selectivity ratio: IC50 αVβ6 (HT-29) over IC50 β3. The protocol:
To evaluate compound potency for membrane-bound αVβ6 an additional cell-based adhesion assay was established using the HT-29 human colon carcinoma cell line. High surface expression of αVβ6 on HT-29 cells was confirmed by flow cytometry. Conditions were established in which cell adhesion to immobilized human latency associated peptide (LAP) was mediated by the αVβ6, as determined by a panel of integrin-specific, neutralizing monoclonal antibodies. Briefly, cells were incubated with inhibitor in the presence of 200 uM Mn^2+, allowed to adhere to immobilized LAP, washed, and adherent cells are detected by quantifying endogenous alkaline phosphatase using para-nitrophenyl phosphate. An 8-point dose-response curve using either 10-fold or 3-fold dilutions of compound was evaluated by fitting a four-parameter logistic, nonlinear model (using SAS). The compounds evaluated were relatively ineffective at inhibition of αVβ6-mediated cell adhesion. The selective antagonism of the αVβ3 integrin is viewed as desirable in this class of compounds, as αVβ6 may also play a role in normal physiological processes of tissue repair and cellular turnover that routinely occur in the skin and pulmonary tissues.

Assay [2] concerns the target T2, αVβ3 integrin (293-β3 cells) (Homo sapiens, UniProt P05106+P06756).
T2 construct: expressed in transfected cells; host or cells: 293 human embryonic kidney cells (293-β3)
Briefly: 293-β3 cell adhesion assay (adhesion to immobilized vitronectin). It is filed as cell-based. As to conditions: 200 uM Mn2+, read-out: 293-β3 (IC50 <10 μM). The source says: While the β3 subunit of αVβ3 is only known to complex with αV or αIIb, the αV subunit complexes with multiple β subunits. The three αV integrins most homologous with αVβ3 are αVβ1, αVβ5 and αVβ6, with 43%, 56% and 47% amino acid identity in the β subunits, respectively. To evaluate the selectivity of compounds between the integrins αVβ3 and αVβ6, cell-based assays were established using the 293 human embryonic kidney cell line. 293 cells express αVβ1, but little to no detectable αVβ3 or αVβ6. cDNAs for β3 and β6 were transfected separately into 293 cells to generate 293-β3 and 293-β6 cells, respectively. High surface expression of αVβ3 and αVβ6 was confirmed by flow cytometry. Conditions were established for each cell line in which cell adhesion to immobilized human vitronectin was mediated by the appropriate integrin, as determined by a panel of integrin-specific, neutralizing monoclonal antibodies. Briefly, cells were incubated with inhibitor in the presence of 200 uM Mn^2+, allowed to adhere to immobilized vitronectin, washed, and adherent cells are detected endogenous alkaline phosphatase and para-nitrophenyl phosphate. An 8-point dose-response curve using either 10-fold or 3-fold dilutions of compound was evaluated by fitting a four-parameter logistic, nonlinear model (using SAS).

Assay [3] deals with T3, Human fibrinogen receptor (IIb/IIIa) (Homo sapiens, UniProt P05106+P08514).
T3 construct: Human fibrinogen receptor (IIb/IIIa) was purified from outdated platelets; from tissue; host or cells: outdated human platelets
T3 sequence (P08514 32-887 limits assumed): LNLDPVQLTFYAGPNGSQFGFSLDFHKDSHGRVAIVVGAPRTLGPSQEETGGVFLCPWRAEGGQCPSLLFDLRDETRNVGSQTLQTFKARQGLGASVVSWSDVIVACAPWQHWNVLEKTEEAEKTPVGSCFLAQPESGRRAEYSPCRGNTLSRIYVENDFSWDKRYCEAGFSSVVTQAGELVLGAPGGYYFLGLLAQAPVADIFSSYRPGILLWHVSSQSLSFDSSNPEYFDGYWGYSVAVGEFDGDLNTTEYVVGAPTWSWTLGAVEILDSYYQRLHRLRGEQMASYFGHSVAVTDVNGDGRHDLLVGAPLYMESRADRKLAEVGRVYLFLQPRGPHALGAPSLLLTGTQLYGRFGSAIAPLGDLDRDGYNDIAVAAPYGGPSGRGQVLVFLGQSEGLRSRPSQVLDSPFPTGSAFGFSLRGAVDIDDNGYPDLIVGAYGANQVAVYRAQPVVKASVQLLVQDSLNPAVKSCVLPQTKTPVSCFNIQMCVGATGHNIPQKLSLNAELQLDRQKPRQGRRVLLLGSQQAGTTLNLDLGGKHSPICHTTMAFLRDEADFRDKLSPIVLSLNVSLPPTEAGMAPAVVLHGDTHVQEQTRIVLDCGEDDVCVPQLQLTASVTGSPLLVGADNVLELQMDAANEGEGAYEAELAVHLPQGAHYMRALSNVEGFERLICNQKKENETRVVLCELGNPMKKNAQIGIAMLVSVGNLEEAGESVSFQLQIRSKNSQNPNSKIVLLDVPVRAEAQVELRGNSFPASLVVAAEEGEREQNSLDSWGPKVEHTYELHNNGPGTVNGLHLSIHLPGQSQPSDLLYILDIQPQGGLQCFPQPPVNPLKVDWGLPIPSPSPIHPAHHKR
T3 sequence (P08514 891-1039 partner limits assumed): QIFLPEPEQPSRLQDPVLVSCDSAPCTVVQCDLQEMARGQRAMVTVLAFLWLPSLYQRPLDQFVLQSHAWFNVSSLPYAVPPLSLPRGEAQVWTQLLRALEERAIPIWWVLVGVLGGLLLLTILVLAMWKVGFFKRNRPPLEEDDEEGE
T3 sequence (P05106 27-788): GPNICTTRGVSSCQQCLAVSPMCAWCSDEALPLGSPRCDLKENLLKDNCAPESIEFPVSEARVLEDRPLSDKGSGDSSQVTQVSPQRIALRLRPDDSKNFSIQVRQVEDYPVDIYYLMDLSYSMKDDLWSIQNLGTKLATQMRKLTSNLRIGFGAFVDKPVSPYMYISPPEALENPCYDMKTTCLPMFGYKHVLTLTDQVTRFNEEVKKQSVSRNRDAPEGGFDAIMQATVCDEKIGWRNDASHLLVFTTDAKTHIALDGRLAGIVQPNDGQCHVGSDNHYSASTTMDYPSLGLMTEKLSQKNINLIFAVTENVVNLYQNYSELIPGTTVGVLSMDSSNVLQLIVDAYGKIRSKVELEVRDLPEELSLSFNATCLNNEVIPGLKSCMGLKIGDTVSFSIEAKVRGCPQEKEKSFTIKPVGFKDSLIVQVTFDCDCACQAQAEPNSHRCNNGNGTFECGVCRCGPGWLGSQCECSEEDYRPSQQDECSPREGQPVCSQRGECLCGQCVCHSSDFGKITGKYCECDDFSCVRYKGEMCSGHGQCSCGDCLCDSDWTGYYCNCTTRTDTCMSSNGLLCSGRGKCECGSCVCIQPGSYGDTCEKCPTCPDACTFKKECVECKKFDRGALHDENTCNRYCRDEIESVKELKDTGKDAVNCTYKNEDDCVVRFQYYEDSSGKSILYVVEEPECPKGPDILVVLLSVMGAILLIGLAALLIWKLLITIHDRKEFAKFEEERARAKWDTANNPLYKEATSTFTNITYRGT
Briefly: Purified IIb/IIIa receptor assay (solid phase receptor assay, SPRA). It is filed as binding. As to conditions: selectivity ratio: IC50 αIIbβ3 (solid phase receptor assay) over IC50 β3. The source says:
Human fibrinogen receptor (IIb/IIIa) was purified from outdated platelets. (Pytela, R., Pierschbacher, M. D., Argraves, S., Suzuki, S., and Rouslahti, E. “Arginine-Glycine-Aspartic acid adhesion receptors”, Methods in Enzymology 144(1987):475-489.) Human vitronectin was purified from fresh frozen plasma as described in Yatohgo, T., Izumi, M., Kashiwagi, H., and Hayashi, M., “Novel purification of vitronectin from human plasma by heparin affinity chromatography,” Cell Structure and Function 13(1988):281-292. Biotinylated human vitronectin was prepared by coupling NHS-biotin from Pierce Chemical Company (Rockford, IL) to purified vitronectin as previously described. (Charo, I. F., Nannizzi, L., Phillips, D. R., Hsu, M. A., Scarborough, R. M., “Inhibition of fibrinogen binding to GP IIb/IIIa by a GP IIIa peptide”, J. Biol. Chem. 266(3)(1991): 1415-1421.) Assay buffer, OPD substrate tablets, and RIA grade BSA were obtained from Sigma (St. Louis, Mo.). Anti-biotin antibody was obtained from Sigma (St. Louis, Mo.). Nalge Nunc-Immuno microtiter plates were obtained from (Rochester, N.Y.). ADP reagent was obtained from Sigma (St. Louis, Mo.).
This assay is essentially the same reported in Niiya, K., Hodson, E., Bader, R., Byers-Ward, V. Koziol, J. A., Plow, E. F. and Ruggeri, Z. M., “Increased surface expression of the membrane glycoprotein IIb/IIIa complex induced by platelet activation: Relationships to the binding of fibrinogen and platelet aggregation”, Blood 70(1987):475-483. The purified human fibrinogen receptor (IIb/IIIa) was diluted from stock solutions to 1.0 μg/mL in Tris-buffered saline containing 1.0 mM Ca^++, Mg^++, and Mn^++, pH 7.4 (TBS^+++). The diluted receptor was immediately transferred to Nalge Nunc-Immuno microtiter plates at 100 μL/well (100 ng receptor/well). The plates were sealed and incubated overnight at 4° C. to allow the receptors to bind to the wells. All remaining steps were at room temperature. The assay plates were emptied and 200 μL of 1% RIA grade BSA in TBS^+++ (TBS^+++/BSA) were added to block exposed plastic surfaces. Following a 2 hour incubation, the assay plates were washed with TBS^+++ using a 96 well plate washer. Logarithmic serial dilution of the test compound and controls were made starting at a stock concentration of […] and using 2 nM biotinylated vitronectin in TBS^+++/BSA as the diluent. This premixing of labeled ligand with test (or control) ligand, and subsequent transfer of 50 μL aliquots to the assay plate was carried out with a CETUS Propette robot; the final concentration of the labeled ligand was 1 nM and the highest concentration of test compound was 1.0×10^−4 M. The competition occurred for two hours after which all wells were washed with a plate washer as before. Affinity purified horseradish peroxidase labeled goat anti-biotin antibody was diluted 1:2000 in TBS^+++/BSA and 125 μL were added to each well. After 45 minutes, the plates were washed and incubated with […] substrate in 100 mM/L citrate buffer, pH 5.0. The plate was read with a microtiter plate reader at a wavelength of 450 nm and when the maximum-binding control wells reached an absorbance of about 1.0, the final A450 were recorded for analysis. The data were analyzed using a macro written for use with the EXCELJ spreadsheet program. The mean, standard deviation, and %CV were determined for duplicate concentrations. The mean A450 values were normalized to the mean of four maximum-binding controls (no competitor added)(B-MAX). The normalized values were subjected to a four parameter curve fit algorithm, [Robard et al., Int.

T1 sequence (P06756 31-889 limits assumed): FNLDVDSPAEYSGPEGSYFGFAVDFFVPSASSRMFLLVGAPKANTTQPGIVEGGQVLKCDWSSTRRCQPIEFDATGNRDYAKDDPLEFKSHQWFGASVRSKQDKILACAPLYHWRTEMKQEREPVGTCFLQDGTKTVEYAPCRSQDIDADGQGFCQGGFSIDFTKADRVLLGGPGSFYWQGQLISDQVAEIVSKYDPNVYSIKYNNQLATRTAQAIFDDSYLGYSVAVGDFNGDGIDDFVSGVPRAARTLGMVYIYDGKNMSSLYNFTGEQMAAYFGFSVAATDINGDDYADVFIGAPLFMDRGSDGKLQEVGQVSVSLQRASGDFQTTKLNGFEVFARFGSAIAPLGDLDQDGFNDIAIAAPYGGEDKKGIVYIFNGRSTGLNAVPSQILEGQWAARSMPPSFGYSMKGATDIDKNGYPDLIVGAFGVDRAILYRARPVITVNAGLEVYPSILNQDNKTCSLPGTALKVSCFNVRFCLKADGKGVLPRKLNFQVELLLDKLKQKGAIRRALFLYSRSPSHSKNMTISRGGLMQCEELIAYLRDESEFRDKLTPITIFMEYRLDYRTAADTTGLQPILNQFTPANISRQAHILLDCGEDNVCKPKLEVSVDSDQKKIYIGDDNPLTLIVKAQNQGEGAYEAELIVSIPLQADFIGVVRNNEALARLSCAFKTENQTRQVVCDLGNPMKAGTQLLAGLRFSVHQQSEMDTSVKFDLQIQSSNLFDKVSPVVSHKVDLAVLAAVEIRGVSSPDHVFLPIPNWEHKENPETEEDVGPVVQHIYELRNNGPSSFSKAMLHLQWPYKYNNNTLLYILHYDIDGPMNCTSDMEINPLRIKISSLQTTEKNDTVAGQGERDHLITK
T1 sequence (P06756 891-1048 partner limits assumed): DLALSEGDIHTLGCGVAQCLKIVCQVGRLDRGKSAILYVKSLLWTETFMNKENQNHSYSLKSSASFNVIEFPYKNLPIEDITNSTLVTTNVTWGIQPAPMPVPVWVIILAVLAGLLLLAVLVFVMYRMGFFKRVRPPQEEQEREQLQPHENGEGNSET
T1 sequence (P18564 22-788): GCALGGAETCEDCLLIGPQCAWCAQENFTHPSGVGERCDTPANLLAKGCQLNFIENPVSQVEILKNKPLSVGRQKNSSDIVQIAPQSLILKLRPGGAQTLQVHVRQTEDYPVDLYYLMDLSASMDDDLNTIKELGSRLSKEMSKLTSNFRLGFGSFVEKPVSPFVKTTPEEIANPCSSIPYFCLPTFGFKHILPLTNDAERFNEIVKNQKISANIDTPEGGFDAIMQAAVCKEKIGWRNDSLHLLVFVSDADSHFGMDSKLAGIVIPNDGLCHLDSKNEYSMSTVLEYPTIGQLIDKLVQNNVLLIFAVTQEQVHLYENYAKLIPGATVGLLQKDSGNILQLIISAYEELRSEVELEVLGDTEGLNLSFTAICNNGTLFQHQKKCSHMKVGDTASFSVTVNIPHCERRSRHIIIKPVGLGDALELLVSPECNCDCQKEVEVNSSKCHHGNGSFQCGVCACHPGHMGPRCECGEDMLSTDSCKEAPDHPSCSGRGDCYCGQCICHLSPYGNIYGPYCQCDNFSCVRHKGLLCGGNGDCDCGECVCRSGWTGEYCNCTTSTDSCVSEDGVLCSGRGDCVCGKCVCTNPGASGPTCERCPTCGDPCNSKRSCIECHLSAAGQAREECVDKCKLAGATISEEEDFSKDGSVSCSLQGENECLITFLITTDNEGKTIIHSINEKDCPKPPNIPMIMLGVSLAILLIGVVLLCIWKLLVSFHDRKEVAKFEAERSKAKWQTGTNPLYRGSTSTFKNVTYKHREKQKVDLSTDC
T2 sequence (P06756 31-889 limits assumed): as the sequence (P06756 31-889 limits assumed) above
T2 sequence (P06756 891-1048 partner limits assumed): as the sequence (P06756 891-1048 partner limits assumed) above
T2 sequence (P05106 27-788): as the sequence (P05106 27-788) above

In general, IC50 refers to the concentration needed to halve the response being measured. `CC(CC(=O)O)(Cc1nc(CCCCNc2ccccn2)no1)c1ccccc1` (stereo not drawn) [Example 42, 3-methyl-3-phenyl-4-{3-[4-(pyridin-2-ylamino)butyl]-1,2,4-oxadiazol-5-yl}-butanoic acid]: in assay [1], the “HT-29 β-6 Selectivity* (β6/β3)” value is “+++ (Selectivity Ratio >100 +++)”. For the same compound, in assay [2], the IC50 was less than 10 µM. Moreover, in assay [3], the “SPRA AIIbB3 Selectivity* IIbIIIa/β3” value is “+++ (Selectivity Ratio >100 +++)”.

`CCC(C)(CC(=O)O)Cc1nc(CCCc2ccc3c(n2)NCCC3)no1` (stereo not drawn) [Example 43, 3-Methyl-3-{3-[3-(5,6,7,8-tetrahydro-[1,8]naphthyridin-2-yl)-propyl]-[1,2,4]oxadiazol-5-ylmethyl}-pentanoic acid]: the “HT-29 β-6 Selectivity* (β6/β3)” value in assay [1] was “+++ (Selectivity Ratio >100 +++)”. Besides, the IC50 in assay [2] is less than 10 µM. The “SPRA AIIbB3 Selectivity* IIbIIIa/β3” value in assay [3] is “+++ (Selectivity Ratio >100 +++)”.

Turning to `CCCC(C)(CC(=O)O)Cc1nc(CCCc2ccc3c(n2)NCCC3)no1` (stereo not drawn) [Example 44, 3-Methyl-3-{3-[3-(5,6,7,8-tetrahydro-[1,8]naphthyridin-2-yl)-propyl]-[1,2,4]oxadiazol-5-ylmethyl}-hexanoic acid], in assay [1], the “HT-29 β-6 Selectivity* (β6/β3)” value was “+++ (Selectivity Ratio >100 +++)”. For the same compound, in assay [2], the IC50 is less than 10 µM. Further, the “SPRA AIIbB3 Selectivity* IIbIIIa/β3” value in assay [3] was “+++ (Selectivity Ratio >100 +++)”.

With `CCC(CC)(CC(=O)O)Cc1nc(CCCc2ccc3c(n2)NCCC3)no1` [Example 45, 3-Ethyl-3-{3-[3-(5,6,7,8-tetrahydro-[1,8]naphthyridin-2-yl)-propyl]-[1,2,4]oxadiazol-5-ylmethyl}-pentanoic acid], the “HT-29 β-6 Selectivity* (β6/β3)” value in assay [1] is given as “++ (Selectivity Ratio of 10-100 ++)”. In assay [2], the IC50 is less than 10 µM. The “SPRA AIIbB3 Selectivity* IIbIIIa/β3” value in assay [3] was “++ (Selectivity Ratio of 10-100 ++)”.

Turning to `CC(C)C(C)(CC(=O)O)Cc1nc(CCCc2ccc3c(n2)NCCC3)no1` (stereo not drawn) [Example 46, 3,4-Dimethyl-3-{3-[3-(5,6,7,8-tetrahydro-[1,8]naphthyridin-2-yl)-propyl]-[1,2,4]oxadiazol-5-ylmethyl}-pentanoic acid], the “HT-29 β-6 Selectivity* (β6/β3)” value in assay [1] is given as “+++ (Selectivity Ratio >100 +++)”. In addition, the IC50 in assay [2] is less than 10 µM. The “SPRA AIIbB3 Selectivity* IIbIIIa/β3” value in assay [3] is “+++ (Selectivity Ratio >100 +++)”.

Turning to `CC(CC(=O)O)(Cc1nc(CCCc2ccc3c(n2)NCCC3)no1)c1ccccc1` (stereo not drawn) [Example 47, 3-Methyl-3-phenyl-4-{3-[3-(5,6,7,8-tetrahydro-[1,8]naphthyridin-2-yl)-propyl]-[1,2,4]oxadiazol-5-yl}-butyric acid], the “HT-29 β-6 Selectivity* (β6/β3)” value in assay [1] was “+++ (Selectivity Ratio >100 +++)”. Besides, the IC50 in assay [2] is less than 10 µM. Moreover, the “SPRA AIIbB3 Selectivity* IIbIIIa/β3” value in assay [3] is recorded as “+++ (Selectivity Ratio >100 +++)”.

As to `O=C(O)CCCc1nc(CCCc2ccc3c(n2)NCCC3)no1` [Example 50, 4-{3-[3-(5,6,7,8-Tetrahydro-[1,8]naphthyridin-2-yl)-propyl]-[1,2,4]oxadiazol-5-yl}-butyric acid], the “HT-29 β-6 Selectivity* (β6/β3)” value in assay [1] is “+++ (Selectivity Ratio >100 +++)”. In addition, the IC50 in assay [2] is less than 10 µM. The “SPRA AIIbB3 Selectivity* IIbIIIa/β3” value in assay [3] is given as “+++ (Selectivity Ratio >100 +++)”.

With `CC(CC(=O)O)(Cc1nc(CCCc2ccc3c(n2)NCCC3)no1)c1cccnc1` (stereo not drawn) [Example 51, 3-Methyl-3-pyridin-3-yl-4-{3-[3-(5,6,7,8-tetrahydro-[1,8]naphthyridin-2-yl)-propyl]-[1,2,4]oxadiazol-5-yl}-butyric acid], in assay [1], the “HT-29 β-6 Selectivity* (β6/β3)” value is on record as “+++ (Selectivity Ratio >100 +++)”. Also, the IC50 in assay [2] was less than 10 µM. Besides, in assay [3], the “SPRA AIIbB3 Selectivity* IIbIIIa/β3” value is listed as “+++ (Selectivity Ratio >100 +++)”.

As for `CC(CC(=O)O)(Cc1nc(CCCCNc2ccccn2)no1)c1cccnc1` (stereo not drawn) [Example 57, 3-Methyl-3-pyridin-3-yl-4-{3-[4-(pyridin-2-ylamino)-butyl]-[1,2,4]oxadiazol-5-yl}-butyric acid], the “HT-29 β-6 Selectivity* (β6/β3)” value in assay [1] is on record as “+++ (Selectivity Ratio >100 +++)”. For the same compound, the IC50 in assay [2] was less than 10 µM. Besides, the “SPRA AIIbB3 Selectivity* IIbIIIa/β3” value in assay [3] is reported as “+++ (Selectivity Ratio >100 +++)”.

Regarding `CC(C)(CC(=O)O)Cc1nc(CCCCNc2ccccn2)no1` [Example 62, β,β-dimethyl-3-[4-(2-pyridinylamino)butyl]-1,2,4-oxadiazole-5-butanoic acid], the “HT-29 β-6 Selectivity* (β6/β3)” value in assay [1] was “+++ (Selectivity Ratio >100 +++)”. Moreover, the IC50 in assay [2] was less than 10 µM. The “SPRA AIIbB3 Selectivity* IIbIIIa/β3” value in assay [3] is listed as “+++ (Selectivity Ratio >100 +++)”.

Turning to `CC(CC(=O)O)Cc1nc(CCCCNc2ccccn2)no1.Cl` (stereo not drawn) [Example 69, 3-methyl-4-{3-[4-(pyridin-2-ylamino)butyl]-1,2,4-oxadiazol-5-yl}butanoic acid], the “HT-29 β-6 Selectivity* (β6/β3)” value in assay [1] is “+++ (Selectivity Ratio >100 +++)”. The IC50 in assay [2] is less than 10 µM. Also, the “SPRA AIIbB3 Selectivity* IIbIIIa/β3” value in assay [3] was “++ (Selectivity Ratio of 10-100 ++)”.

Turning to `CC(CC(=O)O)Cc1nc(CCCc2ccc3c(n2)NCCC3)no1` (stereo not drawn) [Example 70, 3-methyl-4-{3-[3-(5,6,7,8-tetrahydro-1,8-naphthyridin-2-yl)propyl]-1,2,4-oxadiazol-5-yl}butanoic acid], in assay [1], the “HT-29 β-6 Selectivity* (β6/β3)” value is recorded as “+++ (Selectivity Ratio >100 +++)”. The IC50 in assay [2] is less than 10 µM. In assay [3], the “SPRA AIIbB3 Selectivity* IIbIIIa/β3” value was “+++ (Selectivity Ratio >100 +++)”.
